Results as given in PMC8277133, “Os(II)-Bridged Polyarginine Conjugates: The Additive Effects of Peptides in Promoting or Preventing Permeation in Cells and Multicellular Tumor Spheroids” (Inorganic Chemistry, 2021).
Where a SMILES comes first, the peptide text is derived from it. [ ]: non-standard residue; d: D form. The star is where a group is joined. X1 = O=C(c1ccc(-c2cc(-c3ccccn3)nc(-c3ccccn3)c2)cc1)*; Ahx = NCCCCCC(=O)O

Key:
HPAC spheroids [1] = test: Confocal imaging of penetration into live HPAC multicellular tumor spheroids; type: cell-based, human; conditions: for Spheroid penetration / accumulation: 100 μM, 48 h, confocal microscopy, no permeant
Procedure: The human pancreatic cancer cell line (HPAC) was cultured in Gibco Roswell Park Memorial Institute medium supplemented with 5% FBS at 37 °C with 5% CO2. HPAC cells were seeded at 2.5 × 10^3 cells/well of 96-well round-bottom plates pre-coated with poly-Hema (poly-2-hydroxyethyl methacrylate, Sigma). Cells were allowed to be compact and form 3D spheroid structures after 72 h.
Spheroids were treated with [Os-(R4)2]^10+ at 30 μM for 24 h and 100 μM for 24 and 48 h. Control spheroids were treated with the parent complex [Os(tpybenzCOOH)2]^2+ and [Os-(R8)2]^18+ at 100 μM for 48 h. Non-treated spheroids were also prepared as a negative control. Spheroids were co-stained with DAPI at 10 μM for 90 min. Each spheroid was collected individually and embedded in collagen in eight-well chamber slides, incubated for 90 min, and observed under confocal microscopy.
For imaging, HPAC spheroids were plated in collagen-treated eight-well chamber slides. HPAC spheroids were directly imaged from the eight-well chamber using a Leica TSP DMi8 confocal microscope (10× dry and 40× oil immersion objective). Z-scanning was used to acquire images across the z-axis of the spheroid sample. On average, 45–50 images were acquired at approximately 5 μm apart. 3D Z-stack images were used for spheroid reconstructions and 2D projection images are also reported. The Os(II) parent complex and bioconjugates were excited using a 490 nm white light laser, and the emission range was set to be between 650 and 800 nm (a false red color was used for the Os(II) channel). DAPI was excited at 405 nm, and emission was collected between 423 and 580 nm.

A549 cells [2] = test: Confocal laser scanning microscopy uptake study in live A549 cells; type: cell-based; conditions: CLSM; for Cellular uptake / membrane permeation: live A549 cells, 24 h, 37 °C
Procedure: (§1) Two cell lines were studied: an adherent mammalian cell line, Chinese hamster ovarian (CHO–K1), and a lung carcinoma cancer cell line (A549). Dulbecco’s modified Eagle’s medium (DMEM)/Hams F-12 was used for CHO cells and DMEM for A549 cells. Both media were supplemented with 10% FBS and 1% penicillin–streptomycin. The cells were grown at 37 °C with 5% CO2 and sub-cultured at 90% confluency.
(§2) Uptake studies were carried out for A549 and CHO cell lines. Cells were seeded at 1.5 × 10^5 cells in 35 mm glass-bottom culture dishes (Ibidi, Germany). Cells were allowed to grow for 24 h at 37 °C with 5% CO2. […] The dye/media solution was removed, and cells were washed twice with supplemented phosphate-buffered saline (PBS, 1.1 mM MgCl2 and 0.9 mM CaCl2). Cells were directly imaged using a Leica TSP DMi8 confocal microscope (63× oil immersion objective lens unless stated otherwise) with a heated stage at 37 °C.
(§3) [Os-(Rn)2]^x+ (n = 4 and 8; x = 10^+ and 18^+) was excited using a 490 nm white light laser, and the emission range was set to be between 650 and 800 nm. DRAQ7, a nuclear staining dye, was added (3 μM) to distinguish intact live cells from permeabilized/dead cells. The 633 nm laser was used to excite DRAQ7, and emission was collected between 635 and 750 nm. For co-localization studies, MitoTracker Deep Red (100 nM) and LysoTracker Green (50 nM) were used to selectively stain mitochondria and lysosomes, respectively. MitoTracker Deep Red was excited at 644 nm and emission was collected between 655 and 720 nm, and LysoTracker Green was excited at 504 nm and emission was collected at 511 nm.

CHO cells [3] = test: Confocal laser scanning microscopy uptake study in live CHO cells; type: cell-based, Chinese hamster; conditions: CLSM; for Cellular uptake / membrane permeation: live CHO cells, 24 h, 37 °C
Procedure: as §1, §2, §3

cell membrane = conditions: parent complex without peptide; as reported previously; cited from earlier work
Procedure: Uptake of the Os(II) bis-octaarginine conjugate was studied in live A549 lung carcinoma and a non-cancerous CHO cell line. […] The conjugate remained as impermeable to the cell membrane as the parent Os(II) complex at 30 μM/24 h and 100 μM/24 h (Figure S12).

A549 cells [4] = test: Phototoxicity under continuous 490 nm irradiation with DRAQ7; type: cell-based; conditions: A549 cells pretreated 30 μM/24 h, DRAQ7, continuous 490 nm irradiation 0.84 μW/cm^2, 3 h
Procedure: DRAQ7 was added to live A549 cells treated with [Os-(R4)2]^10+ (30 μM/24 h). A group of cells were selected for continuous irradiation using 490 nm excitation (0.84 μW/cm^2). Emission was collected between 650 and 800 nm for [Os-(R4)2]^10+. The 633 nm laser was used to excite DRAQ7, and emission was collected between 635 and 750 nm. This was repeated for an untreated control sample exposed to continuous irradiation and stained with DRAQ7.

CHO cells [5] = test: DRAQ7 co-staining for damaged/dead cells, CHO; type: cell-based, Chinese hamster; conditions: 30 μM, 24 h
Procedure: (§4) Uptake studies were carried out for A549 and CHO cell lines. Cells were seeded at 1.5 × 10^5 cells in 35 mm glass-bottom culture dishes (Ibidi, Germany). Cells were allowed to grow for 24 h at 37 °C with 5% CO2. The growth medium was removed, and a specific concentration of [Os-(Rn)2]^x+ (n = 4 and 8; x = 10^+ and 18^+) was added and allowed to incubate for 24 and 48 h at 37 °C with 5% CO2 in the dark. The dye/media solution was removed, and cells were washed twice with supplemented phosphate-buffered saline (PBS, 1.1 mM MgCl2 and 0.9 mM CaCl2). Cells were directly imaged using a Leica TSP DMi8 confocal microscope (63× oil immersion objective lens unless stated otherwise) with a heated stage at 37 °C.
as §3

A549 cells [6] = test: DRAQ7 co-staining for damaged/dead cells, A549; type: cell-based
Procedure: as §4, §3

HPAC spheroids [7] = test: 3D spheroid viability, Alamar Blue; type: cell-based, human; conditions: 100 μM, 24 and 48 h, relative to untreated controls, n=2
Procedure: The 3D spheroid viability was evaluated using Alamar Blue. Briefly, 2.5 × 10^3 cells were seeded in each well of a 96-well round-bottom plate pre-coated with poly-Hema. The cells were allowed to grow and form spheroids for 72 h. The spheroids were then treated with [Os-(R4)2]^10+ at 100 μM for 24 and 48 h. The Alamar Blue reagent at a concentration of 10% was added to each well and incubated for 5 h at 37 °C. Fluorescence was measured at 535/590 excitation/emission wavelengths on a plate reader (Biotek) using Gen4 software. Background fluorescence was measured by using a blank consisting of medium only. Percentage viability was calculated relative to untreated controls.

Structure (SMILES)	Spheroid penetration / accumulation (HPAC spheroids [1])	Cellular uptake / membrane permeation (A549 cells [2]; 100 μM)	Cellular uptake / membrane permeation (CHO cells [3]; 100 μM)	Cell membrane permeability (cell membrane)	Staining at the center of the spheroid, at 72 ± 5 μm (HPAC spheroids [1]; 30 μM/24 h)	Spheroid penetration (HPAC spheroids [1]; 30 μM/24 h, 3D reconstruction depth coding)	Spheroid penetration (HPAC spheroids [1]; 100 μM/24 h)	Photo-induced toxicity (A549 cells [4])	Cell permeation at 4 °C (A549 cells [2]; A549 cells, 4 °C, 30 μM/24 h)	Cellular uptake / membrane permeation (A549 cells [2]; 30 μM, dark, exc 490 nm, em 650-800 nm)	Cellular damage by DRAQ7 co-staining (CHO cells [5])	Cell viability by DRAQ7 co-staining (A549 cells [6]; 30 μM, 24 h and 48 h)	Cytotoxicity by DRAQ7 co-staining (A549 cells [6]; 100 μM, 48 h)	Cell death by DRAQ7 co-staining (A549 cells [6]; 100 μM/24 h)	Spheroid viability (HPAC spheroids [7])	Cell permeation (CHO cells [3]; CHO cells, 30 μM/24 h)	Cellular uptake / membrane permeation (CHO cells [3]; 30 μM, dark)
O=C(O)c1ccc(-c2cc(-c3ccccn3)nc(-c3ccccn3)c2)cc1.O=C(O)c1ccc(-c2cc(-c3ccccn3)nc(-c3ccccn3)c2)cc1.[Os+2] [[Os(tpybenzCOOH)2]^2+, Os(II) [bis-(4′-(4-carboxyphenyl)-2,2′:6′,2″-terpyridine)]]	no spheroid penetration or accumulation was observed	completely impermeable	completely impermeable	cell membrane impermeable	–	–	–	–	–	–	–	–	–	–	–	–	–
N=C(N)NCCC[C@@H](NC(=O)[C@@H](CCCNC(=N)N)NC(=O)[C@@H](CCCNC(=N)N)NC(=O)[C@@H](CCCNC(=N)N)NC(=O)CCCCCNC(=O)c1ccc(-c2cc(-c3ccccn3)nc(-c3ccccn3)c2)cc1)C(N)=O [[Os-(R4)2]^10+] ({X1-Ahx}-[dR][dR][dR][dR]-NH2)	throughout cell layers and deep into the spheroid core	–	–	–	not observed	spheroid penetration was evident	extensive probe penetration and distribution to the core of the spheroid	non-photocytotoxic	inhibited	rapidly and efficiently internalized	entry of DRAQ7 (blue) in several cell nuclei	remained viable	modest cytotoxic effects	no cell death was induced	no evidence of toxicity	inhibited	rapidly and efficiently internalized
